Source: paper PMC10247778, “PXL1 and SERKs act as receptor–coreceptor complexes for the CLE19 peptide to regulate pollen development” (Nature Communications, 2023)
“Also recorded” adds a separate entry of the source. Ends that are not written are not given here.

T1: PXL1^LRR (extracellular LRR domain of PXY-LIKE1, residues 1-639, 6xHis) (Arabidopsis, UniProt Q9FRS6 24-639)
T1 construct: signal peptide in the construct; PXL1 (PXY-LIKE1), Arabidopsis, AT1G08590, LRR domains, residues 1-639; also called PXL1 ectodomain; PXL1^LRR-6×His; source: High Five cells, purified (Ni-NTA, size-exclusion chromatography)
T1 sequence (looked up): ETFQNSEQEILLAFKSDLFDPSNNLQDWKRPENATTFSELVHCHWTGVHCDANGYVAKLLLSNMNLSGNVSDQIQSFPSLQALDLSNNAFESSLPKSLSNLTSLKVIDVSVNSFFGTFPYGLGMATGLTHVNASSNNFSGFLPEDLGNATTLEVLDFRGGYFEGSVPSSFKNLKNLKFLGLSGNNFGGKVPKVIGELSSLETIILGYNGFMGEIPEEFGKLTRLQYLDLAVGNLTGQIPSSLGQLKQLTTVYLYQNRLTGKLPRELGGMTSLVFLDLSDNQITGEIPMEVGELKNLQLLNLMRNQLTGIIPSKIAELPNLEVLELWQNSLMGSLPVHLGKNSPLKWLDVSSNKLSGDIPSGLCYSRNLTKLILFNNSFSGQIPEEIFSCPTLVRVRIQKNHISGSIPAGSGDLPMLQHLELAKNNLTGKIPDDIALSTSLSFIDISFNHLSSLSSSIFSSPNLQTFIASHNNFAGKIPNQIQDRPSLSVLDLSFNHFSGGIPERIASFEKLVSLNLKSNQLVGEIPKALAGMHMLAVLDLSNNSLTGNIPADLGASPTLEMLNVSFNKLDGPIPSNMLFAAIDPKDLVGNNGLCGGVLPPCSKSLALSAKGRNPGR


Assays:
[1] = tested on: PXL1 (PXL1^LRR); experiment: Gel filtration-MALDI-TOF identification of peptides copurified with PXL1 LRR; format: binding, Arabidopsis; conditions: PXL1^LRR incubated with synthesized peptide mixture (0.1 mg each), 10 mM Bis-Tris pH 6.0, 100 mM NaCl, on ice 1 h, Superdex 200
Method: As part of an effort to identify cognate receptors for peptidyl ligands in Arabidopsis, a pool of synthetic CLE small peptides (Supplementary Table 1) was mixed with purified individual extracellular LRR domains of receptor-like kinases (RLKs). The putative RLK-ligand complexes were purified by gel-filtration, and the peptides were detected by mass spectrometry, as reported previously.
Purified PXL1^LRR protein (with buffer containing 10 mM Bis-Tris pH 6.0, 100 mM NaCl) was incubated with synthesized peptide mixture (0.1 mg for each; Supplementary Table 1) on ice for 1 h. Then, each mixture was subjected to gel filtration (Superdex 200, GE Healthcare) for analysis. The relevant peak fractions of PXL1^LRR were collected and 2 μl was used for analyzed by MALDI-TOF–mass spectrometry analysis.

[2] = molecular target: PXY LRR (Arabidopsis thaliana) (UniProt Q9FII5); experiment: ITC; conditions: cited from earlier work
[3] = molecular target: PXL1 LRR (Arabidopsis thaliana) (UniProt Q9FRS6); experiment: ITC; conditions: cited from earlier work
[4] = molecular target: PXL2 LRR (Arabidopsis thaliana) (UniProt Q9M0G7); experiment: ITC; conditions: cited from earlier work
[5] = molecular target: PXL1^∆KD–SERK1^∆KD interaction; experiment: Co-IP PXL1^∆KD-SERK1^∆KD in Nicotiana benthamiana; format: cell-based, Arabidopsis; conditions: N. benthamiana leaves, with or without peptide 3–4 h; GFP-Trap, anti-Myc
Source text: The 825 bp SERK1 (SERK1^∆KD), 834 bp SERK2 (SERK2^∆KD) and the 927 bp SERK3/BAK1 (BAK1^∆KD) coding regions were amplified with the primers listed in Supplementary Table 3. The PCR products of SERK1^∆KD, SERK2^∆KD and BAK1^∆KD were inserted into the pCAMBIA1306-GFP vector at the KpnI and SalI sites to generate the pCAMBIA1306-SERK1^∆KD/2/BAK1^∆KD-GFP constructs. pCAMBIA1306-PXL^∆KD -MYC, pCAMBIA1306-SERK1^∆KD GFP and pCAMBIA1306-BAK1^∆KD-GFP were transferred into the Agrobacterium tumefaciens GV3101 strain.
The cultures were grown overnight in 2 x YT medium and resuspended to optical density at 600 nm (OD600) = 2.0 in an injection buffer (150 μM acetosyringone, 10 mM MgCl2 and 10 mM MES). […]
Total proteins were extracted from the N. benthamiana leaves with the extraction buffer (50 mM Tris-HCl (pH 7.5), 150 mM NaCl, 5 mM EDTA, 5% glycerol, 1% Triton X-100 with protease inhibitor, phosphatase inhibitor, and PMSF) and then incubated with GFP-Trap beads (Chromo Tek) at 4 °C for 4 h, followed by two washes (50 mM Tris-HCl (pH 7.5), 150 mM NaCl, 5 mM EDTA, 5% glycerol, and 0.01% Triton X-100). Proteins were separated on SDS-PAGE gels and detected by anti-Myc (GNI) antibody via western blots.

[6] = tested on: PXL1 (PXL1-FLAG); experiment: In vivo phosphorylation assay, Phos-tag SDS-PAGE and western blot; format: cell-based, Arabidopsis; conditions: 10-day-old pPXL1::PXL1-FLAG seedlings, 20 µM peptide, 1.5 h; Phos-tag gel, anti-FLAG; λpp control
Method: Ten-day-old […] transgenic seedlings were tested to observe the phosphorylation status of PXL1. The seedlings were cultured in 1/2 MS liquid medium treated with mock or 20 μM CLE19, CLE19[…] or CLV3 peptide for 1.5 h and then ground to a fine powder in liquid N2 for protein extraction performed as described above. The extracted protein was analyzed by Phos-tag (Wako) gel and immunoblotting using anti-FLAG (GNI) antibody. The anti-HSP70 (Abmart) antibody was used to determine the amount of input protein. Anti-FLAG beads (Abmart) were used for immunoprecipitation to purify the PXL1-FLAG protein. Anti-pS/T (ECM) was used to detect the phosphorylation status of the PXL1 protein after CLE19 treatment. The seedling protein extracted was also treated with λpp (NEB) at 30 °C for 0.5 h and then analyzed by anti-FLAG and anti-HSP antibodies.

[7] = molecular target: T1, PXL1^LRR (extracellular LRR domain of …); experiment: ITC; ITC200; 1 mM CLE19 titrated into 0.1 mM PXL1^LRR in the cell, 20 injections; 10 mM Bis-Tris pH 6.0, 100 mM NaCl; 25 °C; conditions: both partners purified
[8] = molecular target: PXL2 (protein used for ITC) (Arabidopsis, UniProt Q9M0G7 24-1013); experiment: ITC; CLE19 with PXL2 and with PXY; conditions not told for these proteins; conditions: both partners purified
Sequence of PXL2 (protein used for ITC) (Q9M0G7 24-1013): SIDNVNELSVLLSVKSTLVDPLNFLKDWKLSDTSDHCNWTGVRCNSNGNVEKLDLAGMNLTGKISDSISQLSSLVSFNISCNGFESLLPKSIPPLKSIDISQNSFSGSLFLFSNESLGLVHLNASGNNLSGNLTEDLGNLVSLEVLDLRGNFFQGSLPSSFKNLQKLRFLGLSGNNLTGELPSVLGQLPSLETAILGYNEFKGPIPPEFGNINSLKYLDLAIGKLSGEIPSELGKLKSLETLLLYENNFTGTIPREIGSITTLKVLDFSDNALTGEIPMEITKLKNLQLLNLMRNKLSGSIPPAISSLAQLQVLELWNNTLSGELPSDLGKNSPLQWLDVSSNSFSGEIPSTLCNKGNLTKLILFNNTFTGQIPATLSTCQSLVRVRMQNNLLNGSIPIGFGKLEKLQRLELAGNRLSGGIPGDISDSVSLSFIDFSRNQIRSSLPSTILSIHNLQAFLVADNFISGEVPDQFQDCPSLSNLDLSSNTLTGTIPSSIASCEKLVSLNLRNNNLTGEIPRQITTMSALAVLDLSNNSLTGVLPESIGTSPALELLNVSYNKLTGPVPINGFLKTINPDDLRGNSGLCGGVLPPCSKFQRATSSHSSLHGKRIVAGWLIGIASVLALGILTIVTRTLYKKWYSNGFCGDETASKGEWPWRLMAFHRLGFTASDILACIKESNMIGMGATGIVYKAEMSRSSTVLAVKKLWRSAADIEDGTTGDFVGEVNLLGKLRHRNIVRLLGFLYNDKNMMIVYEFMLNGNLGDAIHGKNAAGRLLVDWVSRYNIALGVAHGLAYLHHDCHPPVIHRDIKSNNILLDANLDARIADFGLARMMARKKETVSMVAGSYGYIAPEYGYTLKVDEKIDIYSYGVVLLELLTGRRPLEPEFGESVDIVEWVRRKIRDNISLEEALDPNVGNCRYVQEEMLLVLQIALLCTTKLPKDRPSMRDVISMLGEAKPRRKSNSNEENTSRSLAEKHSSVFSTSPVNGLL

Sequence of PXL2 LRR (Arabidopsis thaliana) (Q9M0G7 24-633): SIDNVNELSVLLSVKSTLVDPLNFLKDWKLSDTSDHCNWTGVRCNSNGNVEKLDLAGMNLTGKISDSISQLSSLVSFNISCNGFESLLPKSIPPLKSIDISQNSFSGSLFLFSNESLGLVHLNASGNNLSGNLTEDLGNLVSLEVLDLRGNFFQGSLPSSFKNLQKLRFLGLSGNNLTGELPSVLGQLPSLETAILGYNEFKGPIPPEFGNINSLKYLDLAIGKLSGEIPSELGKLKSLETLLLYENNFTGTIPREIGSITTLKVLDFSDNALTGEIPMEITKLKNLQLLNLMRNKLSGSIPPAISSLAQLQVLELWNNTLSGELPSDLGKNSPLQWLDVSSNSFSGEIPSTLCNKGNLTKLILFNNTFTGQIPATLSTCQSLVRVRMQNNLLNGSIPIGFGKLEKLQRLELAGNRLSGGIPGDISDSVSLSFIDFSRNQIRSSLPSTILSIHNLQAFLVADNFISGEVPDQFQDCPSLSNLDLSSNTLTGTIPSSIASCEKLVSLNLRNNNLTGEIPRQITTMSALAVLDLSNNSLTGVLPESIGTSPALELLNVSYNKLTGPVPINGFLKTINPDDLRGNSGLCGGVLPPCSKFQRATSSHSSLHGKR
Sequence of PXY LRR (Arabidopsis thaliana) (Q9FII5 30-652): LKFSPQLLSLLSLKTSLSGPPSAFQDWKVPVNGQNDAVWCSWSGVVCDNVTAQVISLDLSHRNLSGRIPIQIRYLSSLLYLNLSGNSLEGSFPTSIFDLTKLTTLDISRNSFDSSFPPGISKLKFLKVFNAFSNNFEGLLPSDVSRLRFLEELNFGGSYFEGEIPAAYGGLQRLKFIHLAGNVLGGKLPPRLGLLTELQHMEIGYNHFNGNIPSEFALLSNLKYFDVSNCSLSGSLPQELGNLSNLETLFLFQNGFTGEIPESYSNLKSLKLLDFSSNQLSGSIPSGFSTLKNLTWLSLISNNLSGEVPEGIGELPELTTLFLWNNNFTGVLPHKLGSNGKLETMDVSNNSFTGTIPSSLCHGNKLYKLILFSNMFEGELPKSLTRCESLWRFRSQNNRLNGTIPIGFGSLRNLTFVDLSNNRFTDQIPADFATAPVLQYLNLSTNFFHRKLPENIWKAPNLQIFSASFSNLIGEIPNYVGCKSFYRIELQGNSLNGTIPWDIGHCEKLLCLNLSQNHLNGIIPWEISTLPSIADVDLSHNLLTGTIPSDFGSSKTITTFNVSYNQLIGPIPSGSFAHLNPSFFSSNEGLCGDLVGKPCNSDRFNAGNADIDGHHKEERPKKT

Molecule | CLE peptide copurified with PXL1 [1] | further results
CLE14: CLE peptide (RLVPKGPNPLHN; ends and bridges not checked; UniProt Q3ECJ5 68-79, looked up) | CLE19 was the only CLE peptide that co-purified with PXL1 | –
CLE8: CLE peptide (RRVPTGPNPLHH; ends and bridges not checked; UniProt Q2V4E2 61-72, looked up) | CLE19 was the only CLE peptide that co-purified with PXL1 | –
CLE25: CLE peptide (RKVPNGPDPIHN; ends and bridges not checked; UniProt Q8LFL4 58-69, looked up) | CLE19 was the only CLE peptide that co-purified with PXL1 | –
CLE12: CLE peptide (RRVPSGPNPLHH; ends and bridges not checked; UniProt Q29PU4 107-118, looked up) | CLE19 was the only CLE peptide that co-purified with PXL1 | –
CLE45: CLE peptide (RRVRRGSDPIHN; ends and bridges not checked; UniProt Q6IWA9 107-118, looked up) | CLE19 was the only CLE peptide that co-purified with PXL1 | –
CLE40: CLE peptide (RQVPTGSDPLHH; ends and bridges not checked; UniProt Q9LXU0 62-73, looked up) | CLE19 was the only CLE peptide that co-purified with PXL1 | –
CLE11: CLE peptide (RVVPSGPNPLHH; ends and bridges not checked; UniProt Q3ECU1 88-99, looked up) | CLE19 was the only CLE peptide that co-purified with PXL1 | –
CLE16: CLE peptide (RLVHTGPNPLHN; ends and bridges not checked; UniProt Q8S8M2 92-103, looked up) | CLE19 was the only CLE peptide that co-purified with PXL1 | –
CLE41 (from UniProt Q84W98) | – | Kd [2]: 33 nM; Kd [3]: 2100 nM; Kd [4]: 9900 nM
CLE6: synthetic CLE small peptide of the pool (RVSPGGPDPQHH; ends and bridges not checked; UniProt Q8S8N3 70-81, looked up) | CLE19 was the only CLE peptide that co-purified with PXL1; also recorded: but not CLV3, CLE3, CLE6, and others | –
CLE46: CLE peptide (HKHPSGPNPTGN; ends and bridges not checked; UniProt Q8LDN4 58-69, looked up) | CLE19 was the only CLE peptide that co-purified with PXL1 | –
CLAVATA3 [CLV3] | interaction with PXL1 was not detected; also recorded: CLE19 was the only CLE peptide that co-purified with PXL1; also recorded: but not CLV3, CLE3, CLE6, and others | PXL1^∆KD-SERK1^∆KD interaction (co-IP) [5]: no such interaction was detected in the absence of CLE19 or the presence of CLV3; PXL1 phosphorylation (Phos-tag migration) [6]: Neither CLE19G6T nor CLV3 induced the phosphorylation-related migration of PXL1; also recorded: PXL1 phosphorylation was not induced
CLE19G6T: functionally inactive CLE19G6T (RVIPTTPNPLHN; ends and bridges not checked; UniProt Q8W261 62-73, looked up, variant G6T) | – | PXL1 phosphorylation (Phos-tag migration) [6]: Neither CLE19G6T nor CLV3 induced the phosphorylation-related migration of PXL1; also recorded: PXL1 phosphorylation was not induced; also recorded: lost the ability of inducing PXL1 phosphorylation
CLE43: CLE peptide (RRIPSSPDRLHN; ends and bridges not checked; UniProt Q6IWB1 85-96, looked up) | CLE19 was the only CLE peptide that co-purified with PXL1 | –
CLE9: CLE peptide (RLVPSGPNPLHN; ends and bridges not checked; UniProt Q9FZE4 109-120, looked up) | CLE19 was the only CLE peptide that co-purified with PXL1 | –
CLE3: synthetic CLE small peptide of the pool (RLSPGGPDPRHH; ends and bridges not checked; UniProt Q3EDH8 72-83, looked up) | CLE19 was the only CLE peptide that co-purified with PXL1; also recorded: but not CLV3, CLE3, CLE6, and others | –
CLE18: CLE peptide (RQIPTGPDPLHN; ends and bridges not checked; UniProt Q3ECH9 37-48, looked up) | CLE19 was the only CLE peptide that co-purified with PXL1 | –
CLE20: CLE peptide (RKVKTGSNPLHN; ends and bridges not checked; UniProt Q3EDI6 70-81, looked up) | CLE19 was the only CLE peptide that co-purified with PXL1 | –
RVIPTGPNPLHN | – | Kd [7]: ~346 nM
RVIPTGPNPLHN (ends and bridges not checked) | – | Kd [8]: 714 nM
